Values after ≈ are worked out from the molar mass of the structure shown.
What was measured:
Type in all cases: functional
[1] = test system: Staphylococcus aureus; assay: Antibacterial activity against Staphylococcus aureus assessed as inhibition of bacterial growth incubated for 24 hrs by microbroth two-fold dilution method
[2] = test system: Streptococcus agalactiae; assay: Antibacterial activity against Streptococcus agalactiae assessed as inhibition of bacterial growth incubated for 24 hrs by microbroth two-fold dilution method
[3] = test system: Escherichia coli; assay: Antibacterial activity against Escherichia coli assessed as inhibition of bacterial growth incubated for 24 hrs by microbroth two-fold dilution method
[4] = test system: Staphylococcus aureus; assay: Antibacterial activity against Staphylococcus aureus assessed as diameter of the inhibition circle at 1 mg/ml incubated for 48 hrs
[5] = test system: Staphylococcus aureus; assay: Antibacterial activity against Methicillin-resistant Staphylococcus aureus BNCC 337371 assessed as inhibition of bacterial growth incubated for 24 hrs by microbroth two-fold dilution method
[6] = test system: Streptococcus agalactiae; assay: Antibacterial activity against Streptococcus agalactiae assessed as bacterial growth by measuring optical density at 0.5 times MIC incubated for 12 hrs by real time growth curve analysis
[7] = test system: Escherichia coli; assay: Antibacterial activity against Escherichia coli assessed as bacterial growth by measuring optical density at 1 to 2 times MIC incubated for 12 hrs by real time growth curve analysis
[8] = test system: Streptococcus agalactiae; assay: Antibacterial activity against Streptococcus agalactiae assessed as bacterial growth by measuring optical density at 1 to 2 times MIC incubated for 12 hrs by real time growth curve analysis
[9] = test system: Escherichia coli; assay: Antibacterial activity against Escherichia coli assessed as bacterial growth by measuring optical density at 0.5 times MIC incubated for 12 hrs by real time growth curve analysis

Row | Compound | MIC [1] [µg/mL] | MIC [2] [µg/mL] | MIC [3] [µg/mL] | inhibition zone diameter [4] [mm] | MIC [5] [µg/mL] | OD [6] | OD [7] | OD [8] | OD [9] | Activity [4] [mM]
1 | C=C[C@]1(C)C[C@@H](OC(=O)CSc2nc(N3CCN(CC)CC3)c3c(C)csc3n2)[C@]2(C)[C@H](C)CC[C@]3(CCC(=O)[C@H]32)[C@@H](C)[C@@H]1O | 0.244 (≈ 0.373 µM) | 0.0076 (≈ 0.0116 µM) | 0.977 (≈ 1.49 µM) | 31.2 |  |  |  |  |  | 
2 | C=C[C@]1(C)C[C@@H](OC(=O)CSc2nc(N3CCCNCC3)c3ccsc3n2)[C@]2(C)[C@H](C)CC[C@]3(CCC(=O)[C@H]32)[C@@H](C)[C@@H]1O | 0.122 (≈ 0.195 µM) | 0.061 (≈ 0.0973 µM) | 0.976 (≈ 1.56 µM) | 26.2 |  |  |  |  |  | 
3 | C=C[C@]1(C)C[C@@H](OC(=O)CSc2nc(N3CCSCC3)c3ccsc3n2)[C@]2(C)[C@H](C)CC[C@]3(CCC(=O)[C@H]32)[C@@H](C)[C@@H]1O | 7.81 (≈ 12.4 µM) | 1.95 (≈ 3.1 µM) | > 15.6 | 14 |  |  |  |  |  | 
4 | C=C[C@]1(C)C[C@@H](OC(=O)CSc2nc(N(C)CCN(C)C)c3ccsc3n2)[C@]2(C)[C@H](C)CC[C@]3(CCC(=O)[C@H]32)[C@@H](C)[C@@H]1O | 0.0019 (≈ 0.00302 µM) | 0.244 (≈ 0.388 µM) | 0.244 (≈ 0.388 µM) | 29.4 | 0.244 (≈ 0.388 µM) | <0.3 | 0.1 | 0.1 | <0.3 | 
5 | C=C[C@]1(C)C[C@@H](OC(=O)CSc2nc(N3CCC(N(C)C)CC3)c3ccsc3n2)[C@]2(C)[C@H](C)CC[C@]3(CCC(=O)[C@H]32)[C@@H](C)[C@@H]1O | 0.244 (≈ 0.373 µM) | 0.122 (≈ 0.186 µM) | 3.91 (≈ 5.96 µM) | 27.2 |  |  |  |  |  | 
6 | C=C[C@]1(C)C[C@@H](OC(=O)CSc2nc(N/N=C/c3ccccc3Br)c3ccsc3n2)[C@]2(C)[C@H](C)CC[C@]3(CCC(=O)[C@H]32)[C@@H](C)[C@@H]1O | 15.6 (≈ 21.5 µM) | 0.977 (≈ 1.35 µM) | > 15.6 | 22.8 |  |  |  |  |  | 
7 | C=C[C@]1(C)C[C@@H](OC(=O)CSc2nc(N3CCN(C)CC3)c3ccsc3n2)[C@]2(C)[C@H](C)CC[C@]3(CCC(=O)[C@H]32)[C@@H](C)[C@@H]1O | 0.122 (≈ 0.195 µM) | 0.244 (≈ 0.389 µM) | 7.81 (≈ 12.5 µM) | 26.1 |  |  |  |  |  | 
8 | C=C[C@]1(C)C[C@@H](OC(=O)CS[C@@H]2C[C@H]3CC[C@@H](C2)N3C)[C@]2(C)[C@H](C)CC[C@]3(CCC(=O)[C@H]32)[C@@H](C)[C@@H]1O [RETAPAMULIN] | 0.122 (≈ 0.236 µM) | 0.0305 (≈ 0.0589 µM) | 1.95 (≈ 3.77 µM) | 30.4 | 0.0621 (≈ 0.12 µM) |  |  |  |  | 

Further lines, with some results ahead:

Row | MIC [1] [µg/mL] | MIC [2] [µg/mL] | MIC [3] [µg/mL] | Compound | inhibition zone diameter [4] [mm] | MIC [5] [µg/mL] | OD [6] | OD [7] | OD [8] | OD [9] | Activity [4] [mM]
9 | 3.91 (≈ 6.53 µM) | 0.061 (≈ 0.102 µM) | > 15.6 | C=C[C@]1(C)C[C@@H](OC(=O)CSc2nc(N3CCCC3)c3ccsc3n2)[C@]2(C)[C@H](C)CC[C@]3(CCC(=O)[C@H]32)[C@@H](C)[C@@H]1O | 17.8 |  |  |  |  |  | 
10 | 0.977 (≈ 1.44 µM) | 0.244 (≈ 0.361 µM) | > 15.6 | C=C[C@]1(C)C[C@@H](OC(=O)CSc2nc(N/N=C/c3ccccc3OC)c3ccsc3n2)[C@]2(C)[C@H](C)CC[C@]3(CCC(=O)[C@H]32)[C@@H](C)[C@@H]1O | 21.1 |  |  |  |  |  | 
11 | 7.81 (≈ 11.3 µM) | 0.0153 (≈ 0.0221 µM) | 7.81 (≈ 11.3 µM) | C=C[C@]1(C)C[C@@H](OC(=O)CSc2nc(N/N=C/c3ccccc3[N+](=O)[O-])c3ccsc3n2)[C@]2(C)[C@H](C)CC[C@]3(CCC(=O)[C@H]32)[C@@H](C)[C@@H]1O | 21.5 |  |  |  |  |  | 
12 | 3.91 (≈ 6.83 µM) | 1.95 (≈ 3.42 µM) | 15.6 (≈ 27.3 µM) | C=C[C@]1(C)C[C@@H](OC(=O)CSc2nc(N(C)C)c3ccsc3n2)[C@]2(C)[C@H](C)CC[C@]3(CCC(=O)[C@H]32)[C@@H](C)[C@@H]1O | 21.8 |  |  |  |  |  | 
13 | 0.122 (≈ 0.23 µM) | 0.488 (≈ 0.918 µM) | 3.91 (≈ 7.35 µM) | C=C[C@]1(C)C[C@@H](OC(=O)CSc2nccc(NCCO)n2)[C@]2(C)[C@H](C)CC[C@]3(CCC(=O)[C@H]32)[C@@H](C)[C@@H]1O |  |  |  |  |  |  | 27.3
14 | 7.81 (≈ 11.5 µM) | 0.0305 (≈ 0.0451 µM) | > 15.6 | C=C[C@]1(C)C[C@@H](OC(=O)CSc2nc(N/N=C/c3ccc(OC)cc3)c3ccsc3n2)[C@]2(C)[C@H](C)CC[C@]3(CCC(=O)[C@H]32)[C@@H](C)[C@@H]1O | 18.8 |  |  |  |  |  | 
15 | 0.488 (≈ 0.748 µM) | 0.244 (≈ 0.374 µM) | 1.95 (≈ 2.99 µM) | C=C[C@]1(C)C[C@@H](OC(=O)CSc2nc(N3CCN(CC)CC3)cc(C(F)(F)F)n2)[C@]2(C)[C@H](C)CC[C@]3(CCC(=O)[C@H]32)[C@@H](C)[C@@H]1O | 21 |  |  |  |  |  | 
16 | 0.244 (≈ 0.408 µM) | 0.122 (≈ 0.204 µM) | 3.91 (≈ 6.52 µM) | C=C[C@]1(C)C[C@@H](OC(=O)CSc2nc(C)cc(N3CCN(CC)CC3)n2)[C@]2(C)[C@H](C)CC[C@]3(CCC(=O)[C@H]32)[C@@H](C)[C@@H]1O | 23.9 |  |  |  |  |  | 

Reference: ChEMBL document CHEMBL5120839, “Design, synthesis and antibacterial activity of novel pleuromutilin derivatives with thieno[2,3-d]pyrimidine substitution” (Eur J Med Chem, 2022)
